This experiment addresses IRE1α (Homo sapiens (Human), UniProt O75460, D688N). Description: IRE1α TR-FRET competition binding assay (IRE1α HTRF). To be noted: TR-FRET competition binding to kinase domain of IRE1α. The gist of the method: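 Competition of compounds against an Alexa fluor 647 ATP-site probe (2 nM final) for the His-tagged kinase domain (0.25 nM final), detected via 2 nM Eu anti-His antibody by TR-FRET, 665 and 615 nm emission. Protein–antibody premix 1 h, 4° C; reaction 1 h, room temperature, pH 7.5 HEPES buffer.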
(In general: Time-resolved FRET reads energy transfer from a long-lived donor to a nearby acceptor.)

Consider nine compounds from patent US12344603B2 (Genentech, Inc., priority 2020, dated 2025).

Structures can show the parent of a compound that is named as a salt.

Chain of IRE1α (O75460 547-977 D688N): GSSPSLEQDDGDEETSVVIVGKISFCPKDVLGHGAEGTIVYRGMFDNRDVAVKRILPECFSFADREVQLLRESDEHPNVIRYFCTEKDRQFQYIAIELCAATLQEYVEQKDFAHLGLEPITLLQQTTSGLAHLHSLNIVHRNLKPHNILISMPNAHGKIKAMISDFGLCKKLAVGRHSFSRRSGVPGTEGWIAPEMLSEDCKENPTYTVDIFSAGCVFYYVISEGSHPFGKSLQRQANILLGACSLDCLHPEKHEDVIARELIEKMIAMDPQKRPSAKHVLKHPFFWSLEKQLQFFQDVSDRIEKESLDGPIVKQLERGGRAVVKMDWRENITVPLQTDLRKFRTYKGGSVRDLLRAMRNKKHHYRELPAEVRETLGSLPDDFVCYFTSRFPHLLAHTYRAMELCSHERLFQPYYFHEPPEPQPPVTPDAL

In the case of `CC(C)n1c(=O)c(-c2cc(F)c(NS(=O)(=O)Cc3ccccc3)c(F)c2F)cc2cnc(N[C@@H]3CNC[C@@H](F)C3)nc21` [Compound 26, 1-Phenyl-N-(2,3,6-trifluoro-4-(2-(((3S,5S)-5-fluoropiperidin-3-yl)amino)-8-isopropyl-7-oxo-7,8-dihydropyrido[2,3-d]pyrimidin-6-yl)phenyl)methanesulfonamide], the IC50 (as a rule, the concentration at which inhibition is half-maximal) came to 0.19 nM.
Regarding `COc1cccc(CS(=O)(=O)Nc2c(F)cc(-c3cc4cnc(N[C@@H]5CNC[C@@H](F)C5)nc4n(C(C)C)c3=O)c(F)c2F)c1` [Compound 31, 1-(3-Methoxyphenyl)-N-(2,3,6-trifluoro-4-(2-(((3S,5S)-5-fluoropiperidin-3-yl)amino)-8-isopropyl-7-oxo-7,8-dihydropyrido[2,3-d]pyrimidin-6-yl)phenyl)methanesulfonamide hydrochloride], the IC50 was determined as 0.11 nM. Compared with the last compound, the IC50 is about 1.7-fold lower.
For `CC(C)n1c(=O)c(-c2ccc(NS(=O)(=O)CC3C(F)(F)C34CCC4)c(F)c2)nc2cnc(N[C@H]3CC[C@H](N(C)C)CC3)nc21` (stereo partly drawn) [Example 257, 1-(2,2-Difluorospiro[2.3]hexan-1-yl)-N-[4-[2-[[4-(dimethylamino)cyclohexyl]amino]-8-isopropyl-7-oxo-pteridin-6-yl]-2-fluoro-phenyl]methanesulfonamide] the value was 0.2 nM; for `CCCS(=O)(=O)Nc1c(F)ccc2c(-c3cc4cnc(N[C@H]5CCCNC5)nc4n(C)c3=O)cccc12` [Compound 8, (S)—N-(2-Fluoro-5-(8-methyl-7-oxo-2-(piperidin-3-ylamino)-7,8-dihydropyrido[2,3-d]pyrimidin-6-yl)naphthalen-1-yl)propane-1-sulfonamide], 36 nM; for `CC(C)n1c(=O)c(-c2ccc(NS(=O)(=O)Cc3ccccc3F)nc2)nc2cnc(N[C@@H]3CNC[C@@H](F)C3)nc21` [Example 237, 1-(2-Fluorophenyl)-N-[5-[2-[[(3S,5S)-5-fluoro-3-piperidyl]amino]-8-isopropyl-7-oxo-pteridin-6-yl]-2-pyridyl]methanesulfonamide], 0.3 nM.
The compound `CC(C)n1c(=O)c(-c2ccc(NS(=O)(=O)CCC(C)(F)F)c(F)c2)nc2cnc(N[C@@H]3CNC[C@H](CF)C3)nc21` [Compound 77, 3,3-Difluoro-N-[2-fluoro-4-[2-[[(3S,5R)-5-(fluoromethyl)-3-piperidyl]amino]-8-isopropyl-7-oxo-pteridin-6-yl]phenyl]butane-1-sulfonamide] gave a 50% inhibitory concentration (IC50) of 0.8 nM.
In the case of `CC(C)n1c(=O)c(-c2ccc(NS(=O)(=O)[C@@H]3C[C@H]3c3ccccc3)c(F)c2)nc2cnc(N[C@H]3CC[C@H](N(C)C)CC3)nc21` [Example 274, (1R,2S)—N-(4-(2-(((1r,4r)-4-(Dimethylamino)cyclohexyl)amino)-8-isopropyl-7-oxo-7,8-dihydropteridin-6-yl)-2-fluorophenyl)-2-phenylcyclopropane-1-sulfonamide], the IC50 was 0.2 nM.
Take `CC(C)n1c(=O)c(-c2ccc(NS(=O)(=O)CCCC3CC3)c(F)c2)cc2cnc(N[C@H]3CC[C@H](N(C)C)CC3)nc21` [Example 232, 3-cyclopropyl-N-(4-(2-(((1r,4r)-4-(dimethyl-amino)cyclohexyl)-amino)-8-isopropyl-7-oxo-7,8-dihydropyrido-[2,3-d]pyrimidin-6-yl)-2-fluorophenyl)propane-1-sulfonamide]: the half-maximal inhibitory concentration (IC50) worked out at 0.2 nM.
Regarding `CC(C)n1c(=O)c(-c2ccc(NS(=O)(=O)c3ccccc3C#N)nc2)cc2cnc(N[C@H]3CC[C@H](N(C)CCF)CC3)nc21` [Compound 148, 2-Cyano-N-(5-(2-(((1r,4r)-4-((2-fluoroethyl)(methyl)amino)cyclohexyl)amino)-8-isopropyl-7-oxo-7,8-dihydropyrido[2,3-d]pyrimidin-6-yl)pyridin-2-yl)benzenesulfonamide], the IC50 was determined as 0.23 nM.
